Results on 18 compounds are retold here after patent publication US8058243B2, “Method for treating a brain cancer with ifenprodil” (HSC Research and Development Limited Partnership, priority 2006, dated 2011).

Structures can show the parent of a compound that is named as a salt. Where two headings read alike, the source gives them in different places.

This experiment concerns murine neural precursor cells (neurosphere cultures). As to the kind of experiment: HTS of LOPAC library against secondary neurosphere cultures, MTT proliferation assay at 3 μM, day 7 (z score, P value). The experiment is classed as cell-based, mouse.
The mark [1] stands for this setting: LOPAC library screen at 3 μM, MTT, secondary neurosphere cultures, screened in singlets.
[2] abbreviates: primary LOPAC screen, 3 μM, MTT, neurosphere proliferation.
Setting [3] is: yes/no: significantly inhibited neurosphere proliferation in the primary screen.
The mark [4] stands for this setting: LOPAC library screen, 3 μM, MTT, neurosphere cultures.
Where [5] appears, read: LOPAC screen, neurosphere MTT proliferation, 3 μM, day 7.
Where [6] appears, read: LOPAC primary screen, neurosphere MTT proliferation, 3 μM, day 7.
Setting [7] is: yes/no: significantly inhibited neurosphere proliferation (P<0.01) in primary screen.
The mark [8] stands for this setting: yes/no: significantly inhibited neurosphere proliferation (P<0.01) in the primary screen.
Setting [9] is: LOPAC library screen at 3 μM, secondary neurosphere cultures, MTT.
[10] abbreviates: LOPAC library screen, 3 μM, MTT, secondary neurosphere cultures, day 7.

`CCN(CC)C(=S)SSC(=S)N(CC)CC` [Tetraethylthiuram disulfide]: under setting [1], the “Z Score” value worked out at 2.347. This compound also returned a Z score under setting [2] of 2.347. Further, the Activity entry under setting [3] is reported as “no”.

For the compound `O=C(CCCN1CC=C(n2c(=O)[nH]c3ccccc32)CC1)c1ccc(F)cc1` [Droperidol], the Activity result is “no”. Further, under setting [4], the “Z Score” value came to 0.6447. Under setting [5], the Z score is 0.645.

For `Oc1ccc(C2CNCCc3c2cc(O)c(O)c3Cl)cc1` (centres unmarked) [Fenoldopam bromide], under setting [4], the “Z Score” value came out at 0.05219. Moreover, the Z score under setting [6] was 0.052. Besides, under setting [7], the Activity entry is given as “no”.

Regarding `CN1CCC(c2c[nH]c3ccc(O)cc23)CC1.O=C(O)/C=C\C(=O)O` [BRL 54443 maleate], the “Z Score” value turned out to be 0.3378. Under setting [5], this compound came in with a Z score of 0.338. In addition, under setting [7], the Activity result is given as “no”.

On to `O=C1CC[C@@]2(O)[C@H]3Cc4ccc(O)c5c4[C@@]2(CCN3CC2CC2)[C@H]1O5` [Naltrexone hydrochloride], for which, under setting [4], the “Z Score” value is on record as 0.3891. Under setting [6], this compound came in with a Z score of 0.389. In addition, the Activity entry under setting [8] is given as “no”.

Turning to “O-(Carboxymethyl)hydroxylamine hemihydrochloride”, the “Z Score” value is recorded as −2.058. In addition, the Z score under setting [2] is −2.058. The Activity entry under setting [3] is reported as “no”.

Turning to `N#C/C(=C\c1ccc(O)c(O)c1)C(=O)NCCCc1ccccc1` [Tyrphostin AG 555], the “Z Score” value under setting [9] is recorded as −0.6812. The Z score under setting [2] is −0.681. The Activity result under setting [3] is “no”.

For the compound `N#CC(C#N)=C(N)/C(C#N)=C/c1cc(O)c(O)c(O)c1` [Tyrphostin 51], the “Z Score” value is −0.9177. For the same compound, the Z score under setting [2] is −0.918. Besides, under setting [3], the Activity entry is given as “no”.

Consider `Cc1nccc2c1[nH]c1ccccc12` [Harmane], for which the “Z Score” value is recorded as −1.403. This compound also came in with a Z score under setting [6] of −1.403.

As to `CC1=C(C(=O)O)N2C(=O)[C@@H](NC(=O)[C@H](N)c3ccccc3)[C@H]2SC1` [Cephalexin hydrate], the “Z Score” value under setting [10] is −3.966. The Z score under setting [6] is given as −3.966. The Activity entry under setting [8] is on record as “yes”.

Take `C1CNCCN1.COc1cc(C(O)CO)ccc1O.COc1cc(C(O)CO)ccc1O` (racemic) [MHPG piperazine]: the “Z Score” value under setting [4] turned out to be 0.05276. Under setting [6], the Z score turned out to be 0.053. In addition, the Activity entry under setting [7] is reported as “no”.

For the compound `Cc1oncc1C(=O)Nc1ccc(C(F)(F)F)cc1` [Leflunomide], the “Z Score” value under setting [1] was found to be 4.103. Under setting [6], this compound returned a Z score of 4.103. Besides, under setting [7], the Activity result is given as “no”.

Regarding `C=CCc1ccccc1OCC(O)CNC(C)C` (centres unmarked) [Alprenolol hydrochloride], under setting [10], the “Z Score” value is −2.143. Moreover, under setting [2], the Z score is −2.143. The Activity result under setting [3] is “no”.

For `NC(=S)c1ccc[n+]([C@@H]2O[C@@H](COP(=O)([O-])OP(=O)(O)OC[C@H]3O[C@@H](n4cnc5c(N)ncnc54)C(OP(=O)([O-])O)[C@H]3O)C(O)C2O)c1.[Na+]` (some centres unmarked) [Thio-NADP sodium], the “Z Score” value was found to be 0.3661. Further, the Z score under setting [2] was 0.366. The Activity result under setting [3] is recorded as “no”.

Regarding `Cc1nc(N=Nc2ccc(C(=O)O)cc2)c(COP(=O)(O)O)c(C=O)c1O` [MRS 2159], the “Z Score” value is reported as −0.2666. The compound also showed a Z score under setting [6] of −0.267. Moreover, the Activity result (yes = significantly inhibited neurosphere proliferation (P<0.01) in the primary screen) is recorded as “no”.

In the case of `O=C(CCCN1CCC(O)(c2cccc(C(F)(F)F)c2)CC1)c1ccc(F)cc1` [Trifluperidol hydrochloride], the “Z Score” value under setting [10] was −1.621. This compound showed a Z score under setting [2] of −1.621. Also, the Activity entry under setting [3] is on record as “no”.

Consider (−)-Cotinine, for which the “Z Score” value under setting [9] was −0.5099. For the same compound, the Z score under setting [5] is −0.510. For the same compound, the Activity result under setting [7] was “no”.

In the case of `Nc1ncnc2c1c(-c1ccc(Oc3ccccc3)cc1)cn2C1CCCC1`, the “Z Score” value was −1.412. For the same compound, the Z score under setting [5] is −1.412. The Activity result under setting [7] is “no”.
